# Source: patent US6303630A, “Diarylsulfone non-nucleoside reverse transcriptase inhibitors of human immunodeficiency virus” (University of the Sciences in Philadelphia, priority 2000, dated 2001)
# Like-named read-outs stand apart in the source and are kept apart here.
# Tests used:
# HIV-1 = assay: NCI in vitro anti-HIV drug screen: XTT-formazan assay, protection of T4 lymphocytes (CEM) from HIV-1 cytopathic effects; type: cell-based, human immunodeficiency virus (HIV-1); settings: for EC50 / inhibition at 200 µM / inhibition at 20 µM / inhibition at 2 µM / inhibition at 0.2 µM / inhibition at 63.2 µM / inhibition at 6.33 µM / inhibition at 0.634 µM / inhibition at 0.0635 µM: Human immunodeficiency virus 1, CCRF-CEM; for EC50: 144 h, HIV-1 infected CEM cells, 6 days, XTT, approximate values, read-out: EC50 (50% effective concentration against HIV cytopathic effects); for inhibition at 200 µM / activity at 200 µM: dose 2.00 × 10^-4 Molar; for inhibition at 2 µM / activity at 2 µM: dose 2.00 × 10^-6 Molar; for inhibition at 0.2 µM / activity at 0.2 µM: dose 2.00 × 10^-7 Molar; for activity at 200 µM / activity at 20 µM / activity at 2 µM / activity at 0.2 µM / activity at 63.2 µM / activity at 6.33 µM / activity at 0.634 µM / activity at 0.0635 µM: Human immunodeficiency virus 1, Lymphocyte, read-out: Percent of Control, Infected; for TI50 (IC/EC), Therapeutic Index: IC50/EC50
# Method: Compounds of the present invention were evaluated for anti-HIV efficacy by the National Cancer Institute's (NCI) In Vitro Anti AIDS Drug Discovery Program.
# (§1) The NCI procedure is fully described, for example, in a bulletin provided by the National Institutes of Health, National Cancer Institute, Bethesda, Md. 20892, all of which is incorporated herein by reference. As related in the NCI bulletin, the procedure is based on O. W. Weislow et al., "New soluble-formazan assay for HIV-1 cytopathic effects: application to high flux screening of synthetic and natural products for AIDS-antiviral activity", J. Natl. Cancer Inst. 81:577-586 (1989), and is used to test for compounds active against human immunodeficiency virus (HIV), and is designed to detect compounds active at any stage of the virus reproductive cycle. As further related in the NCI bulletin, the assay includes killing of T4 lymphocytes by HIV. Amounts of HIV are added to cells, with a minimum of two cycles of virus reproduction found to be necessary to obtain the required cell killing. Compounds that interact with virions, cells, or virus gene-products to interfere with viral activities will protect cells from cytolysis. All were compared with a positive (e.g., AZT-treated) control evaluation at the same time under identical conditions. The procedure is set forth as follows:
# (§2) A candidate compound is first dissolved in a suitable solvent, preferably dimethyl sulfoxide, then diluted 1:100 in cell culture medium before preparing serial half-log10 dilutions. T4 lymphocytes (CEM cell line) are then added and after a brief interval HIV-1 is added, resulting in a 1:200 final dilution of the compound. Uninfected cells with the compound serve as a toxicity control, and infected and uninfected without the compound serve as basic controls. Cultures are then incubated at 37° in a 5% carbon dioxide atmosphere for 6 days. The tetrazolium salt, XTT, is added to all wells, and cultures are incubated to allow formazan color development by viable cells. Individual wells are analyzed spectrophotometrically to quantitate formazan product, and in addition are viewed microscopically for detection of viable cells and confirmation of protective activity. Drug-treated virus-infected cells are compared with drug-treated noninfected cells and with other appropriate controls (untreated infected and untreated noninfected cells, drug-containing wells without cells, etc.) on the same plate. Data are reviewed in comparison with other tests performed at the same time and a determination as to activity is made.
# [1] = tested on: T4 lymphocytes (CEM cell line); assay: Cell growth / toxicity control in uninfected T4 lymphocytes (CEM), XTT-formazan; type: cell-based; settings: Homo sapiens, CCRF-CEM; for IC50: 144 h, approximate values; for activity at 200 µM: dose 2.00 × 10^-4 Molar; for activity at 200 µM / activity at 20 µM / activity at 2 µM / activity at 0.2 µM / activity at 63.2 µM / activity at 6.33 µM / activity at 0.634 µM / activity at 0.0635 µM: read-out: Percent of Control, Uninfected; for activity at 20 µM: dose 2.00 × 10^-5 Molar; for activity at 2 µM: dose 2.00 × 10^-6 Molar; for activity at 0.2 µM: dose 2.00 × 10^-7 Molar; for activity at 63.2 µM: dose 6.32 × 10^-5 Molar; for activity at 6.33 µM: dose 6.33 × 10^-6 Molar; for activity at 0.634 µM: dose 6.34 × 10^-7 Molar; for activity at 0.0635 µM: dose 6.35 × 10^-8 Molar
# Description: as §1, §2
# [2] = read-out: Percent of Protection
# [3] = dose 2.00 × 10^-5 Molar, read-out: Percent of Protection
# [4] = dose 6.32 × 10^-5 Molar, read-out: Percent of Protection
# [5] = dose 6.33 × 10^-6 Molar, read-out: Percent of Protection
# [6] = dose 6.34 × 10^-7 Molar, read-out: Percent of Protection
# [7] = dose 6.35 × 10^-8 Molar, read-out: Percent of Protection
# [8] = uninfected CEM cells, 6 days, XTT, read-out: IC50 (50% inhibitory concentration for cell growth)
# [9] = read-out: Percent of Protection, dose 6.34 × 10^-7 Molar
# [10] = read-out: Percent of Protection, dose 6.35 × 10^-8 Molar
# [11] = read-out: IC50 (50% inhibitory concentration for cell growth), uninfected CEM cells, 6 days, XTT
Structure (SMILES),EC50 (HIV-1),inhibition at 200 µM (HIV-1; [2]),inhibition at 20 µM (HIV-1; [3]),inhibition at 2 µM (HIV-1; [2]),inhibition at 0.2 µM (HIV-1; [2]),inhibition at 63.2 µM (HIV-1; [4]),inhibition at 6.33 µM (HIV-1; [5]),activity at 2 µM (HIV-1),activity at 0.2 µM (HIV-1),activity at 0.634 µM (HIV-1; dose 6.34 × 10^-7 Molar),activity at 0.0635 µM (HIV-1; dose 6.35 × 10^-8 Molar),"TI50 (IC/EC), Therapeutic Index (HIV-1)",activity at 200 µM [1],activity at 20 µM [1],activity at 2 µM [1],activity at 0.2 µM [1],activity at 63.2 µM [1],activity at 6.33 µM [1],activity at 0.634 µM [1],activity at 0.0635 µM [1],other results
"O=[N+]([O-])c1ccccc1S(=O)(=O)c1cccc2c1NCCC2 [Compound 46, 8-(2-nitrophenylsulfonyl)-1,2,3,4-tetrahydroquinoline]",1.32 µM,-0.28%,76.4%,69.4%,6.11%,33.6%,89.1%,70%,7.99%,17.9%,0.39%,3.78 × 10^+1,1.77%,95.8%,95.4%,98.9%,38.1%,94%,100%,98.9%,"inhibition at 0.634 µM (HIV-1; [6]): 16.3%; inhibition at 0.0635 µM (HIV-1; [7]): -1.64%; activity at 200 µM (HIV-1): 1.73%; activity at 20 µM (HIV-1; dose 2.00 × 10^-5 Molar): 76.8%; activity at 63.2 µM (HIV-1; dose 6.32 × 10^-5 Molar): 35%; activity at 6.33 µM (HIV-1; dose 6.33 × 10^-6 Molar): 89.3%; IC50 [1, 8]: 49.9 µM"
"O=S(=O)(c1ccccc1)c1cccc2c1NCCC2 [Compound 45, 8-(phenylsulfonyl)-1,2,3,4-tetrahydroquinoline]",14 µM,42.2%,67%,2.49%,0.38%,59.8%,13.3%,4.44%,2.37%,2.22%,0.49%,1.43 × 10^+1,62.1%,101%,93.3%,84.2%,74.2%,94.3%,89.7%,87.2%,"inhibition at 0.634 µM (HIV-1; [9]): 0.22%; inhibition at 0.0635 µM (HIV-1; [10]): -1.54%; activity at 200 µM (HIV-1): 43.3%; activity at 20 µM (HIV-1; dose 2.00 × 10^-5 Molar): 67.7%; activity at 63.2 µM (HIV-1; dose 6.32 × 10^-5 Molar): 60.6%; activity at 6.33 µM (HIV-1; dose 6.33 × 10^-6 Molar): 15.1%; IC50 [1, 11]: > 200 µM"
"CNc1ccc(S(=O)(=O)c2ccccc2[N+](=O)[O-])cc1C [Compound 79, 4-(2-nitrophenyisulfonyl)-N,2-dimethylaniline]",0.183 µM,10.7%,78.6%,97%,53.9%,10.1%,103%,97.2%,56.2%,66.8%,12.5%,1.79 × 10^-2,11.9%,76.9%,94%,97.1%,13.9%,98.2%,93%,107%,"inhibition at 0.0635 µM (HIV-1; [7]): 7.87%; inhibition at 0.634 µM (HIV-1; [9]): 65%; activity at 200 µM (HIV-1): 15.2%; activity at 20 µM (HIV-1; dose 2.00 × 10^-5 Molar): 79.7%; activity at 63.2 µM (HIV-1; dose 6.32 × 10^-5 Molar): 14.6%; activity at 6.33 µM (HIV-1; dose 6.33 × 10^-6 Molar): 103%; IC50 [1, 8]: 32.7 µM"
"Cc1ccc(N(C)S(=O)(=O)c2ccccc2[N+](=O)[O-])cc1 [Compound 31, N-(2-nitrophenylsulfonyl)-N,4-dimethylaniline]",12.5 µM,-0.58%,–,9.89%,-1.72%,–,–,14.4%,3.37%,2.29%,1.67%,31.0 × 10^0,-0.75%,84.3%,84.1%,95.8%,24.6%,91.1%,89.9%,92.9%,"inhibition at 0.634 µM (HIV-1; [6]): -2.85%; inhibition at 20 µM (HIV-1; read-out: Percent of Protection, dose 2.00 × 10^-5 Molar): 73.6%; inhibition at 63.2 µM (HIV-1; read-out: Percent of Protection, dose 6.32 × 10^-5 Molar): 18.4%; inhibition at 6.33 µM (HIV-1; read-out: Percent of Protection, dose 6.33 × 10^-6 Molar): 22%; inhibition at 0.0635 µM (HIV-1; [10]): -3.51%; IC50 [1, 11]: 388 µM"
